Source: patent US9090651B2, “Helix 12 directed pharmaceutical products” (ENDORECHERCHE, INC., priority 2004, dated 2015)
Several values for one entry are separate records, joined by “and”; a condition that tells them apart may be missing. Identical values can stand only once. Like-named read-outs stand apart in the source and are kept apart here.

Key:
[1] = tested on: Shionogi mouse mammary carcinoma cells; experiment: Androgenic/antiandrogenic activity on DHT-stimulated Shionogi cell growth; format: cell-based
[2] = molecular target: T1, Human Androgen Receptor (Homo sapiens, UniProt P10275); experiment: Androgen receptor binding assay (hydroxylapatite, [3H]R1881, cytosol of transfected HEK-293 cells); details: % RBA=100×IC50 R1881/IC50 compound, transfected cells
T1 sequence (P10275 1-920): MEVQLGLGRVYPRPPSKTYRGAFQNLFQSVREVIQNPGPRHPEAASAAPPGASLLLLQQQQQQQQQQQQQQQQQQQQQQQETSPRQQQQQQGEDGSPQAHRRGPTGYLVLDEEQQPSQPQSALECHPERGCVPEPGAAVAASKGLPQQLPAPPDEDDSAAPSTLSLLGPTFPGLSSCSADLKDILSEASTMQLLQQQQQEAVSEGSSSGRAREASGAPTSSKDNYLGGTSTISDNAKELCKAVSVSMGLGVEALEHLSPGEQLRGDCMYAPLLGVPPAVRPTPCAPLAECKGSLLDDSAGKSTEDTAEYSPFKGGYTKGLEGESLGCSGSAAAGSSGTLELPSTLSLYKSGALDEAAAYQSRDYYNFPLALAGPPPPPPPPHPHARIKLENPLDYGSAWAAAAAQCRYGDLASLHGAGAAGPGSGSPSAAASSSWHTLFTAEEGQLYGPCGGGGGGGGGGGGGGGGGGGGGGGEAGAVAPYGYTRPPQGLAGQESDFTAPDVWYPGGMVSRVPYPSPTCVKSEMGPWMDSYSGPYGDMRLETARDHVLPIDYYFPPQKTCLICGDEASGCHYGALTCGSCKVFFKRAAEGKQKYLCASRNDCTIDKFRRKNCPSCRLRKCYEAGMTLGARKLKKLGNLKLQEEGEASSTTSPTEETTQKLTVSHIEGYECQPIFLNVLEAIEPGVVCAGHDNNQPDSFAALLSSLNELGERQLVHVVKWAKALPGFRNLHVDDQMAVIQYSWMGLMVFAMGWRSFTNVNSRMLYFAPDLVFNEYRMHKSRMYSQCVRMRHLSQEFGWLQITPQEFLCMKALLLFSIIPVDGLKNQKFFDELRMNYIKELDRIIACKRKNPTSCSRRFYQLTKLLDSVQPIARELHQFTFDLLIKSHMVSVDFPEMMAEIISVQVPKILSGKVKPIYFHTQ

[3] = tested on: rat prostate; experiment: Systemic antiandrogenic activity, orchidectomized immature male rats with DHT implant: prostate weight; format: in vivo; details: for inhibition in vivo at 0.5 mg: Rattus norvegicus, sc, 168 h, read-out: IN VIVO Rat s.c. (+DHT) Prostate % inhibition, s.c., 0.5 mg/animal once daily for 7 days, +DHT
Protocol: (§1) Immature male rats (Crl:CD(SD)Br) 22 to 24-day old were obtained from Charles-River, Inc. (St-Constant, Quebec, Canada) and housed up to 5 per cage in plastic bins in a temperature (23±1° C.)- and light (12 h light/day, lights on at 7 h15)-controlled environment. The rats were fed rodent chow and tap water ad libitum. The day following their arrival, the animals were orchidectomized (CX) under Isoflurane anesthesia via scrotal route and randomly assigned to groups of 5 animals.
(§2) Compounds were solubilized (when possible) in dimethylsulfoxide (DMSO, 10% final concentration) and administered as suspension in 0.4% methylcellulose. […] One group of animals received the antiandrogen Flutamide as reference. The animals were killed by cervical dislocation under isoflurane anesthesia on the 8th morning following castration. The ventral prostate and seminal vesicles were rapidly dissected and weighed.
(§3) W is the weight of the prostate or the seminal vesicle.

[4] = tested on: rat seminal vesicle; experiment: Systemic antiandrogenic activity, orchidectomized immature male rats with DHT implant: seminal vesicle weight; format: in vivo; details: for inhibition in vivo at 0.5 mg: Rattus norvegicus, sc, 168 h, read-out: IN VIVO Rat s.c. (+DHT) SV % inhibition, s.c., 0.5 mg/animal once daily for 7 days, +DHT; for IN VIVO Rat s.c. (+DHT) SV % inhibition: 0.5 mg/animal once daily for 7 days
Protocol: as §1, §2, §3

[5] = Mus musculus, read-out: Shionogi Antiandrogenic activity IC50 (nM), inhibition of DHT-stimulated Shionogi cell number
[6] = read-out: Shionogi Antiandrogenic activity IC50, inhibition of DHT-stimulated Shionogi cell number

Row | SMILES | IC50 [1, 5] [nM] | Androgen Receptor Binding (%) Human RBA R1881 = 100 [2] | inhibition in vivo at 0.5 mg [3] [%] | inhibition in vivo at 0.5 mg [4] [%] | also measured
1 | CCC(CC)NC(CC)c1cc(OCC[C@]23CCC4C(CCC5=CC(=O)CC[C@@]54C)C2CC[C@@H]3O)ccn1 (stereo partly drawn) [EM-7136] | 0.2 | 92.7% and 93% | 27 | 35 | –
2 | CCC(NC1CCCC1)c1cccc(OCC[C@]23CCC4C5CCC(=O)C=C5C[C@@H](C)C4C2CC[C@]3(C)O)c1 (mixture of isomers) [EM-6733] | 1.3 | 62% | 34 | – | IN VIVO Rat (+DHT) Prostate % inhibition (per os) ([3]; +DHT): 34%; IN VIVO Rat (+DHT) SV % inhibition (per os) ([4]; +DHT): 6%
3 | CC(NC1CCCCC1)c1cccc(OCC[C@]23CCC4C(CCC5C/C(=N\O)CC[C@@]54C)C2CC[C@@H]3O)c1 (stereo partly drawn) [EM-6418] | 5 | 31% | 21 | 13 | IN VIVO Rat (+DHT) Prostate % inhibition (per os) ([3]; +DHT): 16%; IN VIVO Rat (+DHT) SV % inhibition (per os) ([4]; +DHT): 32%
4 | CCC(Cc1cccc(OCC[C@]23CCC4C5CCC(=O)C=C5CCC4C2CC[C@@H]3O)c1)NC1CCCC1 (stereo partly drawn) [EM-6753] | 19 | 8.2% | 0 | – | –
5 | CCCC(NC(CC)CC)c1cccc(OCC[C@]23CCC4C(CCC5=CC(=O)CC[C@@]54C)C2CC[C@@H]3O)c1 (stereo partly drawn) [EM-6841] | – | 139% | – | – | IC50 [1, 6]: 0.1 nM; IN VIVO Rat s.c. (+DHT) Prostate % inhibition ([3]; s.c., 0.5 mg/animal once daily for 7 days, +DHT): 21%; IN VIVO Rat s.c. (+DHT) SV % inhibition ([4]; +DHT): 5%
6 | CCCC(NC(C)C)c1cccc(OCC[C@]23CCC4C(CCC5=CC(=O)CC[C@@]54C)C2CC[C@]3(C)O)c1 (mixture of isomers) [EM-7133] | 1.1 | 55% | 32 | 40 | –
7 | CCC(NC1CCCCC1)c1cccc(OCC[C@]23CCC4C(CCC5=CC(=O)CC[C@@]54C)C2CC[C@@H]3O)c1 (stereo partly drawn) [EM-6798] | – | 118% | 20 | 29 | IN VIVO Rat (+DHT) Prostate % inhibition (1 mg, po) ([3]; 1 mg, po, +DHT): 17%; IN VIVO Rat (+DHT) SV % inhibition (1 mg, po) ([4]; 1 mg, po, +DHT): 19%
8 | CCCC(NC(CC)CC)c1cccc(OCC[C@]23CCC4C5CCC(=O)C=C5C[C@@H](C)C4C2CC[C@@H]3O)c1 (mixture of isomers) [EM-7128] | 0.75 | 120% | 41 | 2 | –
9 | CCC(CC)N(C)C(CC)c1cccc(OCC[C@]23CCC4C5CCC(=O)C=C5CCC4C2CC[C@]3(C)O)c1 (stereo partly drawn) [EM-6902] | 0.06 | 107% | 2 | 0 | –
10 | CCCC(NC(CC)CC)c1cccc(OCC[C@]23CCC4C(CCC5=CC(=O)CC[C@@]54C)C2CC[C@@H]3O)c1 (stereo partly drawn) [EM-6928] | – | 146% and 181% | – | – | IC50 [1, 6]: 0.04 nM; IN VIVO Rat s.c. (+DHT) SV % inhibition ([4]; +DHT): 0%
11 | CCCC(NC(CC)CC)c1cccc(OCC[C@]23CCC4C5CCC(=O)C=C5C(C)(C)CC4C2CC[C@]3(C)O)c1 (mixture of isomers) [EM-7075] | 9.7 | 57% | 0 | 0 | –
12 | CCCC(NC(CC)CC)c1cccc(OCC[C@]23CCC4C5CCC(=O)C=C5C[C@@H](C)C4C2CC[C@]3(C)O)c1 (mixture of isomers) [EM-7129] | 0.96 | 197% | 37 | 10 | –
13 | CCC(NC1CCCC1)c1cc(F)cc(OCC[C@]23CCC4C(CCC5CC(=O)CC[C@@]54C)C2CC[C@@H]3O)c1 (stereo partly drawn) [EM-6761] | 1.2 | 141% | 33 | 0 | –
14 | CCC(CC)N(C)C(CC)c1cccc(OCC[C@]23CCC4C5CCC(=O)C=C5C[C@@H](C)C4C2CC[C@]3(C)O)c1 (mixture of isomers) [EM-7127] | 0.91 | 128% | 20 | 0 | –
15 | CCCC(NC(CC)CC)c1cccc(OCC[C@]23CCC4C5CCC(=O)C=C5C(C)(C)CC4C2CCC3=O)c1 (stereo partly drawn) [EM-6993] | 16.4 | 35% | – | 0 | –
16 | CCC(CC)NC(CN(C)C)c1cccc(OCC[C@]23CCC4C(CCC5CC(=O)CC[C@@]54C)C2CC[C@@H]3O)c1 (stereo partly drawn) [EM-7118] | 7.2 | 176% | 31 | 0 | –
17 | CCC(NC1CCCC1)c1cccc(OCC[C@]23CCC4C5CCC(=O)C=C5C[C@@H](C)C4C2CC[C@@H]3O)c1 (mixture of isomers) [EM-6681] | 1.1 | 56% | 15 | 19 | –
18 | CCC(CC)N(C)C(CC)c1cccc(OCC[C@]23CCC4=C5CCC(=O)C=C5CCC4C2CC[C@@H]3O)c1 (mixture of isomers) [EM-6860] | 5.2 | 33% | 12 | 0 | –
19 | CCC(NC(C)C)c1cccc(OCC[C@]23CCC4C(CCC5=CC(=O)CC[C@@]54C)C2CC[C@]3(C)O)c1 (stereo partly drawn) [EM-6918] | – | 120% | 29 | 0 | –
20 | C[C@]1(O)CCC2C3CCC4=CC(=O)CCC4C3CC[C@@]21CCOc1cccc(CN2CCCCC2)c1 (stereo partly drawn) [EM-6654] | 9.5 | 25% | 0 | – | –
21 | CCCC(NC(C)C)c1cccc(OCC[C@]23C=CC4=C5CCC(=O)C=C5CCC4C2CC[C@@]3(C)O)c1 (mixture of isomers) [EM-7164] | 6 | 27% | – | 0 | –
22 | C[C@@H]1CC2=CC(=O)CCC2C2CC[C@@]3(CCOc4cccc(C[S+]([O-])c5ccccc5)c4)C(CC[C@]3(C)O)C21 (mixture of isomers) [EM-7230] | – | 39% | 0 | 0 | –
23 | CCCC(NC1CCCC1)c1cccc(OCC[C@]23CCC4C5CCC(=O)C=C5C[C@H](C)C4C2CC[C@]3(C)O)c1 (stereo partly drawn) [EM-7218] | – | 112% | 35 | 0 | –
24 | COCC(NC1CCCCC1)c1cccc(OCC[C@]23CCC4C(CCC5CC(=O)CC[C@@]54C)C2CCC3O)c1 (stereo partly drawn) [EM-6972] | 1.2 | 151% | – | – | –
25 | CCC(NC1CCOCC1)c1cncc(OCC[C@]23CCC4C(CCC5CC(=O)CC[C@@]54C)C2CCC3O)c1 (stereo partly drawn) [EM-7107] | 1 | 66.2% | – | – | –
26 | CCC(NC1CCOCC1)c1cccc(OCC[C@]23CCC4C(CCC5=CC(=O)CC[C@@]54C)C2CCC3(C)O)c1 (stereo partly drawn) [EM-6766] | 0.5 | 55.9% | – | – | –
27 | CCC(CC)CNC(CC)(CC)c1cccc(OCC[C@]23CCC4C(CCC5CC(=O)CC[C@@]54C)C2CCC3O)c1 (stereo partly drawn) [EM-7001] | 17 | 1981% | – | – | –
